Experimental data as given in PubChem BioAssay (NCI).
“And” between values parts separate entries of the source, which are not always exact repeats. Identical values can stand only once.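 Cultured in 96-well plates, cells were exposed to test compound for 48 hours across five concentrations. GI50: concentration for 50% inhibition of growth. TGI marks complete inhibition of growth.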

Columns and labels:
Experiment in all cases: DTP human tumour cell line panel, 48 h
[1] = system: SK-MEL-28 melanoma
[2] = system: SNB-19 CNS
[3] = system: COLO 205 colon
[4] = system: SNB-78 CNS
[5] = system: OVCAR-5 ovarian
[6] = system: M14 melanoma
[7] = system: KM20L2 colon
[8] = system: NCI-H23 lung
[9] = system: HCT-15 colon
[10] = system: XF 498 CNS
[11] = system: MDA-N

Row | Compound | TGI [1] [µM] | TGI [2] [µM] | TGI [3] [µM] | TGI [4] [µM] | TGI [5] | TGI [6] | TGI [7] [µM] | TGI [8] [µM] | TGI [9] [µM] | TGI [10] [µM] | GI50 [6] [µM] | GI50 [7] [µM] | GI50 [8] | TGI [11] | GI50 [5]
1 | CN(C)/C=C/C(=O)c1cccc(C(=O)/C=C/N(C)C)n1 | > 100 | > 100 | > 100 | > 100 | > 100 µM | > 100 µM | > 100 | > 100 | > 100 | > 100 | – | – | – | – | –
2 | CC1[C@@H]2C[C@@H]3O[C@@]34[C@H]3CCC5Cc6nc7c(nc6C[C@@]5(C)C3(O)CC(=O)[C@@]24CO[C@]12OC(C)(C)CC2O)CC1CC[C@@H]2C3=C[C@H]4O[C@@]5(O[C@@](C)(CO)C[C@@H]5O)C(C)[C@@]4(O)[C@]3(C)[C@@H](O)CC2[C@]1(C)C7 (stereo partly drawn) | – | – | 0.156 | 0.622 | 0.218 µM | – | 0.244 | 0.467 | 2.66 | 0.0328 | – | – | – | – | –
3 | CN(C)CC(C)(C)C(=O)/C=C/c1ccccc1 | 31 | 31.4 | 26.2 | 88.6 | – | 26.7 µM | 28.8 | 45.5 | 26.9 | 23.8 | – | – | – | – | –
4 | COc1cccc2c1C(=O)c1c(O)c3c(c(O)c1C2=O)C[C@@](O)(C(=O)CO)CC3OC1CC(NCCCCC(OC(C)=O)OC(C)=O)C(O)C(C)O1 (stereo partly drawn) | – | > 1 | – | 0.00804 | > 1 µM | 0.00458 µM and 0.00549 µM | 0.00875 | 0.00237 | > 1 | – | 0.0011 | 0.000858 | 0.000808 µM | – | –
5 | C/C(=N/OCCC(=O)O)C1CC1 | > 100 | > 100 | > 100 | > 100 | – | > 100 µM | > 100 | > 100 | > 100 | > 100 | – | – | – | – | –
6 | CCC(C)Cn1c(C)nc2c1C(=O)c1ccccc1C2=O (stereo not drawn) | > 100 | > 100 | 87.5 | > 100 | – | > 100 µM | > 100 | 48.4 | > 100 | 56 | – | – | – | – | –
7 | CSC(=N/N=C(\C)c1ccc(S(=O)(=O)N(C)c2ccccc2)cc1)SC | > 100 | > 100 | > 100 | – | > 100 µM | > 100 µM | – | > 100 | > 100 | – | – | – | – | > 100 µM | –
8 | CN(C)CCSc1nccc(-c2ccc(-c3ccnc(SCCN(C)C)n3)s2)n1 | 36.2 | 38.8 | 21.7 | 31 | 29.4 µM | – | 23.6 | 28.3 | 17.3 | 29.4 | – | – | – | – | –
9 | CC(=O)OC1COC(n2c(N)c(C#N)c(-c3ccccc3)c(C#N)c2=S)C(OC(C)=O)C1OC(C)=O (stereo not drawn) | > 100 | > 100 | > 100 | – | > 100 µM | > 100 µM | – | > 100 | > 100 | – | – | – | 33.1 µM and 73.2 µM | 88.2 µM and 88.3 µM | –
10 | CC(NC1=NCCO1)c1ccco1 (stereo not drawn) | > 100 | > 100 | > 100 | – | > 100 µM | > 100 µM | – | > 100 | > 100 | – | – | – | – | > 100 µM | –
11 | CC(C)(C)C1=CC(O)(c2c3ccccc3c(C3(O)C=C(C(C)(C)C)C(=O)C(C(C)(C)C)=C3)c3ccccc23)C=C(C(C)(C)C)C1=O | > 100 | > 100 | > 100 | – | > 100 µM | > 100 µM | – | > 100 | > 100 | – | – | – | – | > 100 µM | –
12 | CC(C)c1cc(C(C)C)c(B(c2ccccc2)c2ccccc2)c(C(C)C)c1Br | > 100 | > 100 | > 100 | – | > 100 µM | > 100 µM | – | > 100 | > 100 | – | – | – | – | > 100 µM | –
13 | Cc1cc(C)c(N)c(CO)c1 | > 100 | > 100 | > 100 | – | 6.61 µM and 19 µM | > 100 µM | – | > 100 | > 100 | – | – | – | – | > 100 µM | 1.17 µM and 4.31 µM
14 | CO/C=C(/C(=O)OC)c1ccccc1[C@H]1C[C@@H]1c1ccccc1 | 64.2 | > 100 | 27.6 | – | > 100 µM | 68.8 µM | – | > 100 | 86.8 | – | – | – | – | 71.9 µM | –
15 | CCOC(=O)c1sc2[n+](c1C)C(=O)/C(=C/c1ccccc1Cl)S2 | 47.3 | > 42.7 | 9.85 | – | > 62 µM | > 43.1 µM | – | 27.7 | 12.9 | – | – | – | – | 0.565 µM | –
16 | O=C1CCc2c(sc3ncnc(Nc4cccc(Br)c4)c23)C1 | 52.6 | 19.2 | 20.8 | – | 23.4 µM | 13.9 µM | – | 8.24 | 12.4 | – | – | – | – | 7.69 µM | –
17 | CC1=NNC(N)=N/C1=C\C(Sc1ccc(Cl)cc1)c1ccc(Cl)cc1Cl (stereo not drawn) | 55.7 | 32.8 | 50.4 | – | 36.7 µM | 31.8 µM | – | 29.4 | 30.4 | – | – | – | – | > 71.5 µM | –
18 | CCOC(=O)N1c2c(c3ccccc3n2C(=O)OCC)C(=O)C(OC)N1C(=O)OCC (stereo not drawn) | 53.6 | > 100 | 28.9 | – | > 100 µM | > 100 µM | – | > 100 | 79 | – | – | – | – | > 100 µM | –
19 | CCN(CC)CCC1(C(=O)OC)SCCc2ccc(C)cc21 (stereo not drawn) | > 100 | > 100 | > 100 | – | > 100 µM | > 100 µM | – | > 100 | > 100 | – | – | – | – | > 100 µM | –
20 | CC1=CCC(=O)[C@]2(C)C(CC(=O)O)[C@]3(C)C4=C(C)C(c5ccoc5)C[C@@H]4O[C@@H]3[C@H](O)[C@@H]12 (stereo partly drawn) | > 100 | > 100 | > 100 | – | > 100 µM | > 100 µM | – | > 100 | > 100 | – | – | – | – | > 100 µM | –
21 | CC(=O)N1C(=O)/C(=C\C(=O)c2ccc(Cl)cc2)c2ccccc21 | 35.8 | > 57.2 | 26.7 | – | 48.4 µM | 38.8 µM | – | 31.7 | 23.4 | – | – | – | – | 30.9 µM | –
22 | N#CC(NNC(=O)c1c(Cl)c(Cl)c(Cl)c(Cl)c1-c1nc2ccc(C(=O)c3ccccc3)cc2[nH]1)c1cccc(Oc2ccccc2)c1 (stereo not drawn) | 74.1 | 90 | 46.1 | – | 80.3 µM | 83.9 µM | – | 90.9 | 53.3 | – | – | – | – | 49.6 µM | –
23 | O=C(/C=C/c1ccc(OCCCOc2ccc(/C=C/C(=O)c3ccc(Cl)cc3)cc2)cc1)c1ccc(Cl)cc1 | > 100 | > 100 | > 100 | > 100 | > 100 µM | > 100 µM | > 100 | > 100 | > 100 | > 100 | – | – | – | – | –
24 | c1ccc2c(c1)[C@@H]1O[C@@H]1[C@@]13O[C@@]21[C@H]1O[C@H]1c1ccccc13 | 41.2 | 40.1 | 32.8 | – | 34.8 µM | 33.6 µM | – | 40.1 | 48.8 | – | – | – | – | 32.6 µM | –
